Some targets named below: PHKG2 (human) (UniProt P15735); CLK4 (human) (UniProt Q9HAZ1); DAPK1 (human) (UniProt P53355); CIT (human) (UniProt O14578); CSNK2A2 (human) (UniProt P19784); CDK7 (human) (UniProt P50613); GAK (human) (UniProt O14976); RPS6KA4 KD2 (human) (UniProt O75676); TGFBR2 (human) (UniProt P37173); TAOK3 (human) (UniProt Q9H2K8); DCLK3 (human) (UniProt Q9C098); PIM2 (human) (UniProt Q9P1W9); MYLK3 (human) (UniProt Q32MK0); BMPR1B (human) (UniProt O00238); PIM1 (human) (UniProt P11309); MKNK1 (human) (UniProt Q9BUB5); MAP2K3 (human) (UniProt P46734); MAPK15 (human) (UniProt Q8TD08); CSNK2A1 (human) (UniProt P68400); BMP2K (human) (UniProt Q9NSY1); RIOK3 (human) (UniProt O14730); ACVR2A (human) (UniProt P27037); TNIK (human) (UniProt Q9UKE5); MKNK2 (human) (UniProt Q9HBH9); TTK (human) (UniProt P33981); MAP4K2 (human) (UniProt Q12851); MAPK8 (human) (UniProt P45983); TLK1 (human) (UniProt Q9UKI8); STK24 (human) (UniProt Q9Y6E0); RIOK2 (human) (UniProt Q9BVS4); SRPK3 (human) (UniProt Q9UPE1); STK11 (human) (UniProt Q15831); KIT (human) (UniProt P10721); AURKB (human) (UniProt Q96GD4); ACVR1 (human) (UniProt Q04771).

Assay in all cases: KINOMEscan competition binding
Holding throughout (conditions): compound 10.0 µM

The subject of assay [1] is EIF2AK4 KD2 (human), Q9P2K8 [S808G].
The subject of assay [2] is KIT (human), P10721 [V559D/V654A].
Assay [3] has as its system KIT (human), P10721 [V559D].

Sequence of DCLK3 (human) (Q9C098 whole entry, looked up): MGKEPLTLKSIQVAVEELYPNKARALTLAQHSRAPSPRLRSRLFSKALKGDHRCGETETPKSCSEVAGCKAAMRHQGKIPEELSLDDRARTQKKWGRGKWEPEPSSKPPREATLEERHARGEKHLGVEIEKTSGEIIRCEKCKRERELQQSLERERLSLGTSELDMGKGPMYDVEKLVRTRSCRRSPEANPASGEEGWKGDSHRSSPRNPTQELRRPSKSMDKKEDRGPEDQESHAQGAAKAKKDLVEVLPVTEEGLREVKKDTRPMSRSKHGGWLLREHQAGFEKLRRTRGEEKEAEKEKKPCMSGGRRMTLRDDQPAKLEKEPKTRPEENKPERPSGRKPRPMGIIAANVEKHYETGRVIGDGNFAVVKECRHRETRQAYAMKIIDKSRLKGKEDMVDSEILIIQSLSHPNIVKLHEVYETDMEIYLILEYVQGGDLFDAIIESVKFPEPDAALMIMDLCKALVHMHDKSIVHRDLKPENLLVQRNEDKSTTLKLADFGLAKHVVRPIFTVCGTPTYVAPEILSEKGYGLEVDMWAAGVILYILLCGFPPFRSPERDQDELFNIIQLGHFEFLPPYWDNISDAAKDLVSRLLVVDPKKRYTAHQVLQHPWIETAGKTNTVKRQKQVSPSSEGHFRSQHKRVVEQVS
Sequence of CSNK2A1 (human) (P68400 whole entry, looked up): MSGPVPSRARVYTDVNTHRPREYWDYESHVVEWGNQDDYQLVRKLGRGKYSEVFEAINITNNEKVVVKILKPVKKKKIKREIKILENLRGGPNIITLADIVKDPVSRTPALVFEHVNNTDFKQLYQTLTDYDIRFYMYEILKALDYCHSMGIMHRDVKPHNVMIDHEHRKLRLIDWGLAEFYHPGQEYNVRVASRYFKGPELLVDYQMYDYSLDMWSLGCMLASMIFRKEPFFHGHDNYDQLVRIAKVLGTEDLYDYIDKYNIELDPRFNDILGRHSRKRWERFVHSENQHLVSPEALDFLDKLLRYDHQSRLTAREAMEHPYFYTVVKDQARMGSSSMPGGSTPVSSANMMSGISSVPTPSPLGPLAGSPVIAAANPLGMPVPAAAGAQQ
Sequence of CSNK2A2 (human) (P19784 whole entry, looked up): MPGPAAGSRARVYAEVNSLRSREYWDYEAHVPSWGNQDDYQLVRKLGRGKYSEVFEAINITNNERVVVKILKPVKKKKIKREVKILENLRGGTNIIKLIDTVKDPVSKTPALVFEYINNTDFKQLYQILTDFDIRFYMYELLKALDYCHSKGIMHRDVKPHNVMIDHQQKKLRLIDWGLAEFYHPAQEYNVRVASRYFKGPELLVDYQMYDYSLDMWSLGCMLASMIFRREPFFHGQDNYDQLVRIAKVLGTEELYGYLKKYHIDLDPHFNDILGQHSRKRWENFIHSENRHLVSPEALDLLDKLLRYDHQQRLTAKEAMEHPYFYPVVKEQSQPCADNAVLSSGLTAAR
Sequence of RPS6KA4 KD2 (human) (O75676 whole entry, looked up): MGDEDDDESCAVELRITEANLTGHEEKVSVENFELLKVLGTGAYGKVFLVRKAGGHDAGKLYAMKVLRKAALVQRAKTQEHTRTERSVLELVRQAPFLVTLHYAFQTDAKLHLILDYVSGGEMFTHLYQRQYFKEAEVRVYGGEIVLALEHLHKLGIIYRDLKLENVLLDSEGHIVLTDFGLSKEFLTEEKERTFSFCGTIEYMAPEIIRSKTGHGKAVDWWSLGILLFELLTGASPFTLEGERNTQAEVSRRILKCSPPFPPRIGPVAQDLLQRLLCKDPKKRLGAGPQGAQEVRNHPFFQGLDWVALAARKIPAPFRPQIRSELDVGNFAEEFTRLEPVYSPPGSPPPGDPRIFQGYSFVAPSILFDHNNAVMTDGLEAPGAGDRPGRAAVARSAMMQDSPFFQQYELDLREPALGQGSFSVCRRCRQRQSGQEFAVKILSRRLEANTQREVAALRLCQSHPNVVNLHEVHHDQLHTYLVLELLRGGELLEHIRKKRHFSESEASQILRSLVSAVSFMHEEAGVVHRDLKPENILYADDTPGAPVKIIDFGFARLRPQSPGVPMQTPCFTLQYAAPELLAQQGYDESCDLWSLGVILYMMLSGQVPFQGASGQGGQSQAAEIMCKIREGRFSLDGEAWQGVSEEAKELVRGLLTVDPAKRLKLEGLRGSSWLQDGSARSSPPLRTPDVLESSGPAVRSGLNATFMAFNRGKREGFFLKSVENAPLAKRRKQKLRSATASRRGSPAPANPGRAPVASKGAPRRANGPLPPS
Sequence of BMPR1B (human) (O00238 whole entry, looked up): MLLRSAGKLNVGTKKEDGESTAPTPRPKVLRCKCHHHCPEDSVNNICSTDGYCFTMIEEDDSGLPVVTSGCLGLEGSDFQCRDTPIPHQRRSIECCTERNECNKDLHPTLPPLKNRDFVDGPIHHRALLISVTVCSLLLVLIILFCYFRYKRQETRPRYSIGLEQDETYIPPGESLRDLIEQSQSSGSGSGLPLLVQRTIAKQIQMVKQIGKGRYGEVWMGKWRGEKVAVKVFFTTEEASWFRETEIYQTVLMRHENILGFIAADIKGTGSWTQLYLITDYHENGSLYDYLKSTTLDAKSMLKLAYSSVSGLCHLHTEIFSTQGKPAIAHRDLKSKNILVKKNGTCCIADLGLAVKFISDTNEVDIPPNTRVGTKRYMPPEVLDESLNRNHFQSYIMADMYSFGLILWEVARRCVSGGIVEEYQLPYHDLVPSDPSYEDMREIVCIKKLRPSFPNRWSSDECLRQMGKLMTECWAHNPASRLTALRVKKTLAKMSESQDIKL
Sequence of MKNK2 (human) (Q9HBH9 whole entry, looked up): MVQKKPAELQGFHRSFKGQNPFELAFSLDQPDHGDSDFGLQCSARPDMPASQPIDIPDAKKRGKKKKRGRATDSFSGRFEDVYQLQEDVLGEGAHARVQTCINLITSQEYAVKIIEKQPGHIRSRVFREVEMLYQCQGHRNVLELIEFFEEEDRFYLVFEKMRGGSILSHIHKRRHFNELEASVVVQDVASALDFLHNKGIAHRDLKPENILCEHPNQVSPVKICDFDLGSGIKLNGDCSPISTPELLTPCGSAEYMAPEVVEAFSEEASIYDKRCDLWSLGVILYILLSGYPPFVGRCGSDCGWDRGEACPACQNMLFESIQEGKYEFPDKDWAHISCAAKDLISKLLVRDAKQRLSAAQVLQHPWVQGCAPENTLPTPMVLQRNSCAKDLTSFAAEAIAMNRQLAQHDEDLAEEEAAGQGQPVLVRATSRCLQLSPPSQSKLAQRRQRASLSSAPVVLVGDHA
Sequence of PIM2 (human) (Q9P1W9 whole entry, looked up): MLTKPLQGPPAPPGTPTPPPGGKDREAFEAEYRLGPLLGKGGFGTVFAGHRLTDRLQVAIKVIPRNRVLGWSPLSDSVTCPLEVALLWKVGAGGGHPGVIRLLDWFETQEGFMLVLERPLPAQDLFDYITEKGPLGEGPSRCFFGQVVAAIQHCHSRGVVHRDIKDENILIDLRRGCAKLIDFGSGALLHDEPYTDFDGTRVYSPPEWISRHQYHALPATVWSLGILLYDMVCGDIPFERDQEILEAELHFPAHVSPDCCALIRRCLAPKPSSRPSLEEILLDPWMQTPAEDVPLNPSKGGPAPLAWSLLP
Sequence of PIM1 (human) (P11309 whole entry, looked up): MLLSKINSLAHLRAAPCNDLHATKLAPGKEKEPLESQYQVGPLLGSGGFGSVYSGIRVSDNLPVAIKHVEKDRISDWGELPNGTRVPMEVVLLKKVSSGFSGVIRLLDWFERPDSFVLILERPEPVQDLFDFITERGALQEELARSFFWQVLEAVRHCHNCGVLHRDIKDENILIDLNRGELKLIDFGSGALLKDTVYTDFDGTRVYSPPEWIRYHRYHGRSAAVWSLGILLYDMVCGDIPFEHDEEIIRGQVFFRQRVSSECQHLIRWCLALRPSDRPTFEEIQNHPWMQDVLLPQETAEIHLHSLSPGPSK
Sequence of BMP2K (human) (Q9NSY1 whole entry, looked up): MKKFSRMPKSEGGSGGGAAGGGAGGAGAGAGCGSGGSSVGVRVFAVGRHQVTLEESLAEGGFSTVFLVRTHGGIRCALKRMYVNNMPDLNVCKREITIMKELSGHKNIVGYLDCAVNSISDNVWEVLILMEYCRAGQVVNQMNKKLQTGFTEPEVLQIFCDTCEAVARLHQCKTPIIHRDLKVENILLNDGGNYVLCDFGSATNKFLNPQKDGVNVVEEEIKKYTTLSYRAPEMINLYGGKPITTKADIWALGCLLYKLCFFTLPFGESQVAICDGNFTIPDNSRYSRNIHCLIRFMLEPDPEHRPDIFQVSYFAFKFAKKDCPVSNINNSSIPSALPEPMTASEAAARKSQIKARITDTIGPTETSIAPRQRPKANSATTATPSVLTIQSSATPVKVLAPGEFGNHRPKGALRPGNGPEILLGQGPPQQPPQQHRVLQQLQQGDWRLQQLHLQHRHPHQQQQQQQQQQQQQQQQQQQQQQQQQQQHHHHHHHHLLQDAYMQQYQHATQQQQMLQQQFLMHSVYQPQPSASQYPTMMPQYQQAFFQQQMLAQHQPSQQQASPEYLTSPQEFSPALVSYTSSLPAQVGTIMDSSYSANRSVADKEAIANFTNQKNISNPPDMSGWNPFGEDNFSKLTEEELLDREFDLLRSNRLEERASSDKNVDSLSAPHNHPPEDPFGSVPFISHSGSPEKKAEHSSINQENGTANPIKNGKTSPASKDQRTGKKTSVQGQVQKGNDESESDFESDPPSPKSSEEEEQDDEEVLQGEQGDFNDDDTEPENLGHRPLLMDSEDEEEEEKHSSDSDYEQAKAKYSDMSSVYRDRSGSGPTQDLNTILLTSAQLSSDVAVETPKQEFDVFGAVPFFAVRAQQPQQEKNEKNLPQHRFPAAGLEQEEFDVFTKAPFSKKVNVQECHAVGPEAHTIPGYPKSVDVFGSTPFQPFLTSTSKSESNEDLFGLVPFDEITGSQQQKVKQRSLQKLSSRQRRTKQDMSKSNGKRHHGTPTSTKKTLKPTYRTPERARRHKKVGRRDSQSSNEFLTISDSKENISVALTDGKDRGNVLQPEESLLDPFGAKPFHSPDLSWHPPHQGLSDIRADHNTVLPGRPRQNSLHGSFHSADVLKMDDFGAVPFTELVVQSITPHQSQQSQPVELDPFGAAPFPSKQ

As for `N=C1NC(=O)/C(=C/c2ccc(-c3ccc(F)cc3O)o2)S1`, the kinase still bound, per cent of control came out at 15% at PHKG2 (human); 2.1% on CLK4 (human); 8.3% at DAPK1 (human); 33% at CIT (human); 15% at CSNK2A2 (human); 0.95% on CDK7 (human). The kinase still bound, per cent of control on GAK (human) was 7.6%; on RPS6KA4 KD2 (human), 1.8%; at TGFBR2 (human), 5%; at TAOK3 (human) it was 0.2%; at DCLK3 (human) it was 1%; on PIM2 (human) it was 1.4%. Moreover, the kinase still bound, per cent of control on MYLK3 (human) amounted to 16%; at BMPR1B (human) it was 12%; at PIM1 (human), 3.8%; on MKNK1 (human), 15%; on MAP2K3 (human) it was 3.2%; on MAPK15 (human), 0.1%.

Take `N=C1NC(=O)/C(=C/c2ccc(-c3ccccc3O)o2)S1`: the kinase still bound, per cent of control is 16% at PHKG2 (human); 5.2% on CLK4 (human); 7.6% at DAPK1 (human); 9.9% on CSNK2A1 (human); 17% at CSNK2A2 (human); 1.4% at CDK7 (human). Moreover, the kinase still bound, per cent of control came out at 7.6% on GAK (human); 14% on BMP2K (human); 2.2% at RPS6KA4 KD2 (human); 3.6% at TGFBR2 (human); 0.05% on TAOK3 (human); 2.9% at DCLK3 (human). The kinase still bound, per cent of control came out at 1.4% on PIM2 (human); 29% on MYLK3 (human); 8.8% on BMPR1B (human); 20% on RIOK3 (human); 1.4% on PIM1 (human); 3.4% on MAP2K3 (human). The figures for the kinase still bound, per cent of control on ACVR2A (human) and at MAPK15 (human) were 31% and 0.3%, respectively.

`CS(=O)(=O)Nc1ccc(-c2ncc(/C=C3\SC(=N)NC3=O)s2)cc1`: the kinase still bound, per cent of control at TNIK (human) was determined as 16%; on MKNK2 (human), 13%; at DAPK1 (human) it was 4%; on TTK (human), 19%; at GAK (human), 2.8%; on BMP2K (human), 29%. Moreover, the kinase still bound, per cent of control on RPS6KA4 KD2 (human) was 1.2%; on TGFBR2 (human), 12%; at DCLK3 (human), 22%; on PIM2 (human), 4.3%; at MYLK3 (human) it was 2.6%; at BMPR1B (human) it was 14%. The kinase still bound, per cent of control was found to be 2.8% on PIM1 (human), 13% on MKNK1 (human), 18% at ACVR2A (human) and 29% on MAP4K2 (human).

With `N=C1NC(=O)/C(=C/c2ccc(-c3ccc(C(N)=O)cc3O)o2)S1`, the kinase still bound, per cent of control on CLK4 (human) came to 6.4%; on DAPK1 (human) it was 9.7%; on CIT (human) it was 19%; at CSNK2A1 (human), 5.8%; on TTK (human) it was 34%; at CSNK2A2 (human), 6.7%. Also, the kinase still bound, per cent of control was found to be 1% on CDK7 (human); 6.6% at GAK (human); 0.75% on RPS6KA4 KD2 (human); 9% on TGFBR2 (human); 13% on TAOK3 (human); 2.7% at DCLK3 (human). Further, the kinase still bound, per cent of control at PIM2 (human) turned out to be 0.8%; in assay [1] it was 16%; on MYLK3 (human), 22%; on PIM1 (human), 3%; on MKNK1 (human), 13%; at MAPK15 (human) it was 0.1%.

Take `N=C1NC(=O)/C(=C/c2ccc(-c3csc4ccccc34)o2)S1`: the kinase still bound, per cent of control on MKNK2 (human) came out at 34%; on MAPK8 (human), 34%; on CLK4 (human), 25%; at DAPK1 (human), 15%; on CSNK2A1 (human), 12%; at CSNK2A2 (human), 11%. In addition, the kinase still bound, per cent of control at TLK1 (human) came out at 11%; on TGFBR2 (human), 2.4%; on DCLK3 (human), 26%; on STK24 (human), 18%; on PIM2 (human) it was 0.3%; in [1] it was 33%. The kinase still bound, per cent of control at MYLK3 (human) was 21%; on PIM1 (human), 8.1%; on MAP2K3 (human) it was 20%; at ACVR2A (human) it was 10%; at MAPK15 (human), 7.6%; in assay [2], 24%.

Consider `CS(=O)(=O)Nc1ccc(-c2cncc(/C=C3\SC(=N)NC3=O)c2)cc1`, for which the kinase still bound, per cent of control was 19% at TNIK (human); 24% on MKNK2 (human); 23% on RIOK2 (human); 34% at SRPK3 (human); 17% on STK11 (human); 6% in assay [3]. In addition, the kinase still bound, per cent of control at CIT (human) was found to be 0.8%; at KIT (human), 8.2%; on AURKB (human) it was 24%; on ACVR1 (human), 1.8%; at TLK1 (human), 26%; at BMP2K (human), 22%. Further, the kinase still bound, per cent of control on TGFBR2 (human) stood at 1.7%; at TAOK3 (human) it was 4.7%; at DCLK3 (human) it was 0.9%; on MYLK3 (human), 19%; on BMPR1B (human) it was 10%; at RIOK3 (human), 19%. Further, the kinase still bound, per cent of control at MKNK1 (human) is 0.55%; at MAP2K3 (human), 16%; at ACVR2A (human), 0.9%; on MAPK15 (human) it was 13%; on MAP4K2 (human), 5.8%.

(Values after the kinase profiling compilation of Christmann-Franck et al. (2016).)
